Measurements from article PMC6711126, “Novel 2-phenoxypyrido[3,2-b]pyrazin-3(4H)-one derivatives as potent and selective aldose reductase inhibitors with antioxidant activity” (Journal of Enzyme Inhibition and Medicinal Chemistry, 2019).
Where “and” joins values, the source holds several entries; their conditions need not be identical. Equal values may be shown once.

Tests used:
[1] = DPPH radical scavenging assay; settings: methanol, 517 nm; for DPPH/sca% 100 μM: compound 100 μM; for DPPH/sca% 50 μM: compound 50 μM; for DPPH/sca% 10 μM: compound 10 μM
Procedure: (§1) All new synthetic compounds 4a–o were tested for their potential inhibitory activity of AKR1B1 isolated from rat lenses. Besides, the inhibitory activity of aldehyde reductase (AKR1A1) isolated from rat kidneys was also investigated to evaluate the selectivity for AKR1B1. The enzyme AKR1A1 is closely related to AKR1B1, and plays an important role in physiological detoxification. […] Additionally, the antioxidant activity was assessed by using the model reaction with the stable free radical of 2,2-diphenyl-1-picrylhydrazyl (DPPH) according to the modified method, which was first employed by Blois[23].
The antioxidant activity of all synthesised compounds was determined with the DPPH model reaction and […] (Trolox) was employed as a positive control (Table 2).
To investigate the antiradical activity of target compounds in a homogeneous system, a method based on the scavenging of the stable free radical DPPH was employed. A 100 μL of methanolic solution of various compounds with different concentrations was added to 1 mL DPPH methanolic solution (2.5 × 10^-5 g/mL) and 1.9 ml methanol solution to give final concentrations of 0.1, 0.05, 0.01 mM for the tested compounds, respectively. After vortexing thoroughly and leaving for 30 min at room temperature, the optical density was measured at λ 517 nm using the Shimadzu UV-1800 spectrophotometer. The tested compounds and the reference (Trolox) were dissolved in methanol, and after 240 min (steady state), the percentage of DPPH radical scavenging was determined by the equation as shown below. The experiments were performed in triplicate.

[2] = target: T1, AKR1A1 isolated from rat kidneys (Rattus norvegicus, UniProt P51635); experiment: AKR1A1 (aldehyde reductase) inhibition, NADPH oxidation with sodium D-glucuronate as substrate; assay type: biochemical; settings: rat kidney enzyme, pH 7.2, 37 °C
T1 construct: aldehyde reductase (AKR1A1) isolated from rat kidneys; from tissue; host or cells: rat kidneys
T1 sequence (P51635 1-325): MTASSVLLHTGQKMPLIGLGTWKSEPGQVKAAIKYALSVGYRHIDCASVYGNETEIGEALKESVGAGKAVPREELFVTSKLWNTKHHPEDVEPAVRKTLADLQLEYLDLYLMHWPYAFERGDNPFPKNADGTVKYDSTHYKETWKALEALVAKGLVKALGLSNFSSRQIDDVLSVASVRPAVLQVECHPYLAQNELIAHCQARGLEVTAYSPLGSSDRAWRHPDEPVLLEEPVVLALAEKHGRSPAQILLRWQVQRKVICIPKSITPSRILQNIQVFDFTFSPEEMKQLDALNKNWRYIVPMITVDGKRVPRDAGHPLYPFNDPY
Procedure: as §1
The AKR1A1 inhibition activity was performed in a reaction mixture containing 0.25 mL NADPH (0.12 mM), 0.1 mL enzyme extract, 0.25 mL sodium phosphate buffer (pH = 7.2, 0.1 M), 0.15 mL deionized water, and 0.25 mL sodium D-glucuronate (20 mM) as substrate in a final volume of 1 mL. Before adding to sodium D-glucuronate, the reaction mixture was incubated at 37 °C for 10 min, and then the substrate was added to start the reaction, which was monitored for 4 min.
(§2) The inhibitory activity of the newly synthesized compounds against AKR1B1 and AKR1A1 was assayed by adding 5 μL of the inhibitor solution to the reaction mixture described above. All compounds were dissolved in dimethyl sulfoxide (DMSO) and diluted with deionized H2O. To correct for the nonenzymatic oxidation of NADPH, the rate of NADPH oxidation in the presence of all the reaction mixture components except the substrate was subtracted from each experimental rate. The inhibitory effect of the synthetic compounds was routinely estimated at 10^-4 M (the concentration is referenced to that of the compound in the reaction mixture).

[3] = target: T2, AKR1B1 isolated from rat lenses (Rattus norvegicus, UniProt P07943); experiment: AKR1B1 (aldose reductase) inhibition, NADPH oxidation with D,L-glyceraldehyde as substrate; assay type: biochemical; settings: rat lens enzyme, pH 6.2, 30 °C
T2 construct: AKR1B1 isolated from rat lenses; from tissue; host or cells: rat lenses
Procedure: as §1, with “Besides,” for “All new synthetic compounds 4a–o were tested for their potential inhibitory activity of AKR1B1 isolated from rat lenses. Besides,”
The AKR1B1 inhibition activity was performed in a reaction mixture containing 0.25 mL NADPH (0.10 mM), 0.25 mL sodium phosphate buffer (pH = 6.2, 0.1 M), 0.1 mL enzyme extract, 0.15 mL deionized water, and 0.25 mL D,L-glyceraldehyde (10 mM) as substrate in a final volume of 1 mL. Before adding to D,L-glyceraldehyde, the reaction mixture was incubated at 30 °C for 10 min, and then the substrate was added to start the reaction, which was monitored for 4 min.
as §2

Structure (SMILES)	melting point	IC50 [2]	IC50 [3]	DPPH/sca% 100 μM [1]	DPPH/sca% 50 μM [1]	DPPH/sca% 10 μM [1]
O=C(O)Cn1c(=O)c(Oc2ccccc2)nc2cccnc21 [4a, 2-(3-oxo-2-phenoxypyrido[3,2-b]pyrazin-4(3H)-yl)acetic acid]	239 to 244 °C	26.9 ± 1.45 µM	8570 ± 523 nM	6.9 ± 1.2%		
COc1cc(OC)cc(Oc2nc3cccnc3n(CC(=O)O)c2=O)c1 [4d, 2-(2-(3,5-dimethoxyphenoxy)-3-oxopyrido[3,2-b]pyrazin-4(3H)-yl)acetic acid]	241 to 247 °C	21.5 ± 1.81 µM	4300 ± 288 nM	25.9 ± 1.3%		
COc1cc(Oc2nc3cccnc3n(CC(=O)O)c2=O)cc(OC)c1OC [4e, 2-(3-oxo-2-(3,4,5-trimethoxyphenoxy)pyrido[3,2-b]pyrazin-4(3H)-yl)acetic acid]	235 to 243 °C	20.9 ± 1.21 µM	7570 ± 431 nM	17.8 ± 0.9%		
O=C(O)Cn1c(=O)c(Oc2cc(O)cc(O)c2)nc2cccnc21 [4j, 2-(2-(3,5-dihydroxyphenoxy)-3-oxopyrido[3,2-b]pyrazin-4(3H)-yl)acetic acid]	231 to 237 °C	20.8 ± 1.5 µM	87 ± 7 nM	95.0 ± 0.9%	77.2 ± 1.5%	45.3 ± 1.9%
O=C(O)Cn1c(=O)c(Oc2cc(O)cc(O)c2)nc2cc(Br)cnc21 [4l, 2-(7-bromo-2-(3,5-dihydroxyphenoxy)-3-oxopyrido[3,2-b]pyrazin-4(3H)-yl)acetic acid]	233 to 235 °C	19.8 ± 1.41 µM	56 ± 5 nM	95.3% and 95.3 ± 1.2%	80.6% and 80.6 ± 2.0%	46.8% and 46.8 ± 1.5%
COc1cc(Oc2nc3cccnc3n(CC(=O)O)c2=O)cc(O)c1OC [4m, 2-(2-(3-hydroxy-4,5-dimethoxyphenoxy)-3-oxopyrido[3,2-b]pyrazin-4(3H)-yl)acetic acid]	237 to 244 °C	31.6 ± 3.06 µM	4530 ± 258 nM	56.9 ± 1.8%	35.9 ± 1.1%	
COc1c(O)cc(Oc2nc3cccnc3n(CC(=O)O)c2=O)cc1O [4n, 2-(2-(3,5-dihydroxy-4-methoxyphenoxy)-3-oxopyrido[3,2-b]pyrazin-4(3H)-yl)acetic acid]	235 to 241 °C	25.8 ± 1.65 µM	2360 ± 184 nM	65.7 ± 0.9%	40.8 ± 1.6%	
O=C(O)Cn1c(=O)c(Oc2cc(O)c(O)c(O)c2)nc2cccnc21 [4o, 2-(3-oxo-2-(3,4,5-trihydroxyphenoxy)pyrido[3,2-b]pyrazin-4(3H)-yl)acetic acid]	241 to 246 °C	21.7 ± 1.47 µM	859 ± 58 nM	88.5 ± 1.4%	65.2 ± 1.9%	23.4 ± 2.0%
CC(/C=C1\SC(=S)N(CC(=O)O)C1=O)=C\c1ccccc1 [Epalrestat, reference compound]		55.7 ± 3.29 µM				
Cc1c(C)c2c(c(C)c1O)CCC(C)(C(=O)O)O2 (centres unmarked) [Trolox, […], reference compound]				96.7 ± 0.8%	89.8 ± 1.0%	85.9 ± 0.6%

Further lines, with some results ahead:

melting point	IC50 [2]	IC50 [3]	Structure (SMILES)	DPPH/sca% 100 μM [1]	DPPH/sca% 50 μM [1]	DPPH/sca% 10 μM [1]
234 to 242 °C	19.8 ± 1.32 µM	2680 ± 199 nM	COc1ccc(Oc2nc3cccnc3n(CC(=O)O)c2=O)cc1 [4b, 2-(2-(4-methoxyphenoxy)-3-oxopyrido[3,2-b]pyrazin-4(3H)-yl)acetic acid]	18.9 ± 0.8%		
241 to 251 °C	17.6 ± 1.02 µM	5680 ± 608 nM	COc1ccc(Oc2nc3cccnc3n(CC(=O)O)c2=O)cc1OC [4c, 2-(2-(3,4-dimethoxyphenoxy)-3-oxopyrido[3,2-b]pyrazin-4(3H)-yl)acetic acid]	21.2 ± 1.5%		
231 to 239 °C	15.9 ± 0.781 µM	121 ± 10 nM	O=C(O)Cn1c(=O)c(Oc2ccc(O)cc2)nc2cccnc21 [4f, 2-(2-(4-hydroxyphenoxy)-3-oxopyrido[3,2-b]pyrazin-4(3H)-yl)acetic acid]	37.7 ± 1.0%		
232 to 236 °C	19.3 ± 1.81 µM	2500 ± 203 nM	COc1ccc(Oc2nc3cccnc3n(CC(=O)O)c2=O)cc1O [4g, 2-(2-(3-hydroxy-4-methoxyphenoxy)-3-oxopyrido[3,2-b]pyrazin-4(3H)-yl)acetic acid]	54.8 ± 1.6%	21.5 ± 1.2%	
231 to 236 °C	16.9 ± 0.692 µM	305 ± 22 nM	O=C(O)Cn1c(=O)c(Oc2ccc(O)c(O)c2)nc2cccnc21 [4h, 2-(2-(3,4-dihydroxyphenoxy)-3-oxopyrido[3,2-b]pyrazin-4(3H)-yl)acetic acid]	74.6 ± 1.4%	44.1 ± 2.3%	
229 to 232 °C	15.1 ± 0.924 µM	2850 ± 31 nM	COc1cc(O)cc(Oc2nc3cccnc3n(CC(=O)O)c2=O)c1 [4i, 2-(2-(3-hydroxy-5-methoxyphenoxy)-3-oxopyrido[3,2-b]pyrazin-4(3H)-yl)acetic acid]	78.4 ± 0.7%	45.2 ± 1.8%	
232 to 236 °C	18.4 ± 1.34 µM	23 ± 3 nM	O=C(O)Cn1c(=O)c(Oc2cc(O)cc(O)c2)nc2cc(Cl)cnc21 [4k, 2-(7-chloro-2-(3,5-dihydroxyphenoxy)-3-oxopyrido[3,2-b]pyrazin-4(3H)-yl)acetic acid]	94.8 ± 1.1%	76.4 ± 0.9%	49.1 ± 2.4%
